Data taken from patent publication US9540392B2, “Thienopyrimidines” (BAYER PHARMA AKTIENGESELLSCHAFT, priority 2012, dated 2017).

target: T1, human full-length MKNK1 (Homo sapiens, UniProt Q9BUB5, T385D); assay: MKNK1 kinase high ATP assay (TR-FRET); assay type: biochemical; conditions: 2 mM ATP, after preincubation with MKNK1; read-out: MKNK1 IC50 (MKNK1 high ATP)
T1 construct: GST (N); purchased Carna Biosciences 02-145; host or cells: insect cells (baculovirus expression system)
Method in brief: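 Compound was preincubated 15 min at 22° C. with MKNK1 in 50 mM HEPES pH 7.5, 5 mM MgCl2, 1.0 mM DTT, then the reaction ran 30 min at 22° C. with 2 mM ATP and 0.06 μM biotinylated peptide (final).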

T1 sequence (Q9BUB5 1-424 isoform Q9BUB5-2 T344D): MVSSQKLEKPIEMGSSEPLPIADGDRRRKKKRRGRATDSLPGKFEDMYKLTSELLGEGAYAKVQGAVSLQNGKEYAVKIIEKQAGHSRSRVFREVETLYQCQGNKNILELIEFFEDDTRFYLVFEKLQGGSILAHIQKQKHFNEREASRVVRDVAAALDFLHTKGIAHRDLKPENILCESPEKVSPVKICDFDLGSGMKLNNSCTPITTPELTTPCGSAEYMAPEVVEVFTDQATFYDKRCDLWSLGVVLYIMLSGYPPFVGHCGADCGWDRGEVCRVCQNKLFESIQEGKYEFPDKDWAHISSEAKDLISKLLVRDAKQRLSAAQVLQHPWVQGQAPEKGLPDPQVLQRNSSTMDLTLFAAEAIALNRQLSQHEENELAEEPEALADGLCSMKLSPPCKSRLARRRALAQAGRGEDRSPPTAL

Row | SMILES | IC50
1 | CC(C)Oc1cc2[nH]ncc2cc1Nc1ncnc2sc3c(c12)CCC(C(=O)N1CCCCC1)C3 (racemic) [Example 213, (RS)-Piperidin-1-yl(4-{[6-(propan-2-yloxy)-1H-indazol-5-yl]amino}-5,6,7,8-tetrahydro[1]benzothieno[2,3-d]pyrimidin-7-yl)methanone] | 1.5 nM
2 | COc1cc2[nH]ncc2cc1Nc1ncnc2sc3c(c12)CCC(C(=O)N1C[C@H](O)[C@@H](O)C1)C3 (mixture of isomers) [Example 244, [(3R,4R)-3,4-Dihydroxypyrrolidin-1-yl]{(7RS)-4-[(6-methoxy-1H-indazol-5-yl)amino]-5,6,7,8-tetrahydro[1]benzothieno[2,3-d]pyrimidin-7-yl}methanone] | 0.4 nM
3 | CC(C)Oc1cc2[nH]ncc2cc1Nc1ncnc2sc3c(c12)CCC(C(=O)N1CC2(CCS2(=O)=O)C1)C3 (racemic) [Example 222, (RS)-(1,1-Dioxido-1-thia-6-azaspiro[3.3]hept-6-yl)(4-{[6-(propan-2-yloxy)-1H-indazol-5-yl]amino}-5,6,7,8-tetrahydro[1]benzothieno[2,3-d]pyrimidin-7-yl)methanone] | 0.9 nM
4 | O=C(O)C1CCc2c(sc3ncnc(Nc4cc5cn[nH]c5cc4F)c23)C1 (centres unmarked) [Example 55, 4-[(6-Fluoro-1H-indazol-5-yl)amino]-5,6,7,8-tetrahydro[1]benzothieno[2,3-d]pyrimidine-7-carboxylic acid] | 37 nM
5 | Cc1n[nH]c2ccc(Nc3ncnc4sc5c(c34)CCC(C(=O)O)C5)cc12 (racemic) [Example 62, (RS)-4-[(3-Methyl-1H-indazol-5-yl)amino]-5,6,7,8-tetrahydro[1]benzothieno[2,3-d]pyrimidine-7-carboxylic acid] | 1420 nM
6 | CN(CCCO)C(=O)C1CCc2c(sc3ncnc(Nc4ccc5[nH]ncc5c4)c23)C1 (racemic) [Example 202, (RS)-N-(3-hydroxypropyl)-4-(1H-indazol-5-ylamino)-N-methyl-5,6,7,8-tetrahydro[1]benzothieno[2,3-d]pyrimidine-7-carboxamide] | 15 nM
7 | CC(C)(C)NC(=O)C1CCc2c(sc3ncnc(Nc4ccc5[nH]ncc5c4)c23)C1 (racemic) [Example 102, (RS)-N-tert-butyl-4-(1H-indazol-5-ylamino)-5,6,7,8-tetrahydro[1]benzothieno[2,3-d]pyrimidine-7-carboxamide] | 14.9 nM
8 | COc1cc2[nH]ncc2cc1Nc1ncnc2sc3c(c12)CCC(C(=O)N1CCC1)C3 (racemic) [Example 177, (RS)-Azetidin-1-yl{4-[(6-methoxy-1H-indazol-5-yl)amino]-5,6,7,8-tetrahydro[1]benzothieno[2,3-d]pyrimidin-7-yl}methanone] | 0.4 nM
9 | CN(C)C(=O)N1CCN(C(=O)C2CCc3c(sc4ncnc(Nc5ccc6[nH]ncc6c5)c34)C2)CC1 (racemic) [Example 126, (RS)-4-{[4-(1H-indazol-5-ylamino)-5,6,7,8-tetrahydro[1]benzothieno[2,3-d]pyrimidin-7-yl]carbonyl}-N,N-dimethylpiperazine-1-carboxamide] | 14.8 nM
10 | COCCN1CCN(C(=O)C2CCc3c(sc4ncnc(Nc5ccc6[nH]ncc6c5)c34)C2)CC1 (racemic) [Example 133, (RS)-[4-(1H-indazol-5-ylamino)-5,6,7,8-tetrahydro[1]benzothieno[2,3-d]pyrimidin-7-yl][4-(2-methoxyethyl)piperazin-1-yl]methanone] | 21.4 nM
11 | O=C(NCc1ccccn1)C1CCc2c(sc3ncnc(Nc4ccc5[nH]ncc5c4)c23)C1 (racemic) [Example 81, (RS)-4-(1H-indazol-5-ylamino)-N-(pyridin-2-ylmethyl)-5,6,7,8-tetrahydro[1]benzothieno[2,3-d]pyrimidine-7-carboxamide] | 2.4 nM
12 | CC(C)Oc1cc2[nH]ncc2cc1Nc1ncnc2sc3c(c12)CCC(C(=O)N1CC(C#N)C1)C3 (racemic) [Example 208, (RS)-1-[(4-{[6-(Propan-2-yloxy)-1H-indazol-5-yl]amino}-5,6,7,8-tetrahydro[1]benzothieno[2,3-d]pyrimidin-7-yl)carbonyl]azetidine-3-carbonitrile] | 0.2 nM
13 | CCOc1cc2[nH]ncc2cc1Nc1ncnc2sc3c(c12)CCC(C(=O)O)C3 (racemic) [Example 210, (RS)-4-[(6-Ethoxy-1H-indazol-5-yl)amino]-5,6,7,8-tetrahydro[1]benzothieno[2,3-d]pyrimidine-7-carboxylic acid] | 73 nM
14 | COCCN(C)C(=O)C1CCc2c(sc3ncnc(Nc4ccc5[nH]ncc5c4)c23)C1 (racemic) [Example 130, (RS)-4-(1H-indazol-5-ylamino)-N-(2-methoxyethyl)-N-methyl-5,6,7,8-tetrahydro[1]benzothieno[2,3-d]pyrimidine-7-carboxamide] | 9.5 nM
15 | O=C(C1CCc2c(sc3ncnc(Nc4ccc5[nH]ncc5c4)c23)C1)N1CC=CC1 (racemic) [Example 184, (RS)-2,5-dihydro-1H-pyrrol-1-yl[4-(1H-indazol-5-ylamino)-5,6,7,8-tetrahydro[1]benzothieno[2,3-d]pyrimidin-7-yl]methanone] | 12.4 nM
16 | CC(O)CN(C)C(=O)C1CCc2c(sc3ncnc(Nc4ccc5[nH]ncc5c4)c23)C1 (racemic) [Example 122, (RS)-N-(2-hydroxypropyl)-4-(1H-indazol-5-ylamino)-N-methyl-5,6,7,8-tetrahydro[1]benzothieno[2,3-d]pyrimidine-7-carboxamide] | 11.2 nM
17 | COc1cc2[nH]ncc2cc1Nc1ncnc2sc3c(c12)CCC(C(=O)N1CCOCC1)C3 (racemic) [Example 175, (RS)-{4-[(6-Methoxy-1H-indazol-5-yl)amino]-5,6,7,8-tetrahydro[1]benzothieno[2,3-d]pyrimidin-7-yl}(morpholin-4-yl)methanone] | 0.5 nM
18 | O=C(Nc1cccnc1)C1CCc2c(sc3ncnc(Nc4ccc5[nH]ncc5c4)c23)C1 (racemic) [Example 100, (RS)-4-(1H-indazol-5-ylamino)-N-(pyridin-3-yl)-5,6,7,8-tetrahydro[1]benzothieno[2,3-d]pyrimidine-7-carboxamide] | 7.5 nM
19 | O=C(CN1CCN(C(=O)C2CCc3c(sc4ncnc(Nc5ccc6[nH]ncc6c5)c34)C2)CC1)N1CCCC1 (racemic) [Example 201, (RS)-2-(4-{[4-(1H-indazol-5-ylamino)-5,6,7,8-tetrahydro[1]benzothieno[2,3-d]pyrimidin-7-yl]carbonyl}piperazin-1-yl)-1-(pyrrolidin-1-yl)ethanone] | 18.1 nM
20 | CN(C)CCNC(=O)C1CCc2c(sc3ncnc(Nc4ccc5[nH]ncc5c4)c23)C1 (centres unmarked) [Example 38, N-[2-(Dimethylamino)ethyl]-4-(1H-indazol-5-ylamino)-5,6,7,8-tetrahydro[1] benzothieno [2,3-d]pyrimidine-7-carboxamide] | 6 nM
21 | O=C(C1CCc2c(sc3ncnc(Nc4ccc5[nH]ncc5c4)c23)C1)N1CC(N2CCCCC2)C1 (racemic) [Example 200, (RS)-[4-(1H-indazol-5-ylamino)-5,6,7,8-tetrahydro[1]benzothieno[2,3-d]pyrimidin-7-yl][3-(piperidin-1-yl)azetidin-1-yl]methanone] | 8.6 nM
22 | COc1cc2[nH]ncc2cc1Nc1ncnc2sc3c(c12)CCC(C(=O)N1CC2(COC2)C1)C3 (racemic) [Example 250, (RS)-{4-[(6-Methoxy-1H-indazol-5-yl)amino]-5,6,7,8-tetrahydro[1]benzothieno[2,3-d]pyrimidin-7-yl}(2-oxa-6-azaspiro[3.3]hept-6-yl)methanone] | 0.5 nM
23 | O=C(NCc1cccnc1)C1CCc2c(sc3ncnc(Nc4ccc5[nH]ncc5c4)c23)C1 (centres unmarked) [Example 32, 4-(1H-Indazol-5-ylamino)-N-(pyridin-3-ylmethyl)-5,6,7,8-tetrahydro[1] benzothieno [2,3-d]pyrimidine-7-carboxamide] | 5 nM
24 | O=C(C1CCc2c(sc3ncnc(Nc4ccc5[nH]ncc5c4)c23)C1)N1CCN(CC2CC2)CC1 (racemic) [Example 191, (RS)-[4-(cyclopropylmethyl)piperazin-1-yl][4-(1H-indazol-5-ylamino)-5,6,7,8-tetrahydro[1]benzothieno[2,3-d]pyrimidin-7-yl]methanone] | 7.3 nM
25 | CN(CCN1CCCC1)C(=O)C1CCc2c(sc3ncnc(Nc4ccc5[nH]ncc5c4)c23)C1 (racemic) [Example 167, (RS)-4-(1H-indazol-5-ylamino)-N-methyl-N-[2-(pyrrolidin-1-yl)ethyl]-5,6,7,8-tetrahydro[1]benzothieno[2,3-d]pyrimidine-7-carboxamide] | 14.9 nM
26 | CC(C)Oc1cc2[nH]ncc2cc1Nc1ncnc2sc3c(c12)CCC(C(=O)N1CCOCC1)C3 (racemic) [Example 218, (RS)-Morpholin-4-yl(4-{[6-(propan-2-yloxy)-1H-indazol-5-yl]amino}-5,6,7,8-tetrahydro[1]benzothieno[2,3-d]pyrimidin-7-yl)methanone] | 1.2 nM
27 | COc1cc2[nH]ncc2cc1Nc1ncnc2sc3c(c12)CCC(C(=O)O)C3 (centres unmarked) [Example 57, 4-[(6-Methoxy-1H-indazol-5-yl)amino]-5,6,7,8-tetrahydro[1]benzothieno[2,3-d]pyrimidine-7-carboxylic acid] | 7 nM
28 | COCCN(CCOC)C(=O)C1CCc2c(sc3ncnc(Nc4ccc5[nH]ncc5c4)c23)C1 (racemic) [Example 107, (RS)-4-(1H-indazol-5-ylamino)-N,N-bis(2-methoxyethyl)-5,6,7,8-tetrahydro[1]benzothieno[2,3-d]pyrimidine-7-carboxamide] | 8.1 nM
29 | O=C(CN1CCN(C(=O)C2CCc3c(sc4ncnc(Nc5ccc6[nH]ncc6c5)c34)C2)CC1)NC1CC1 (racemic) [Example 166, (RS)-N-cyclopropyl-2-(4-{[4-(1H-indazol-5-ylamino)-5,6,7,8-tetrahydro[1]benzothieno[2,3-d]pyrimidin-7-yl]carbonyl}piperazin-1-yl)acetamide] | 15.3 nM
